# From US8252740B2, “Thermally-targeted delivery of medicaments including doxorubicin” (The University of Mississippi Medical Center, priority 2006, dated 2012)
# “Also recorded” adds a separate entry of the source. Read-outs that look alike come from different tables or passages of the source. Marks after values point to notes of the source that are not given here.
# Legend:
# Assay type in all cases: cell-based, human
# MES-SA/Dx5 cells [1] = test: Proliferation of doxorubicin-resistant cells, continuous 72 h exposure
# Procedure: To test the ability of the ELP doxorubicin carrier to overcome this drug resistance, a uterine cancer cell line (MES-SA) and its doxorubicin resistant subline MES-SA/Dx5 were treated with either free doxorubicin or ELP-delivered doxorubicin.
# A major problem with classical chemotherapy is the development of drug resistance. The most common mechanism of resistance is expression of a drug efflux pump (MDR1) by the cancer cells in response to drug treatment. This pump can remove drugs from the cells, and, though induced by one drug, it can act on a wide variety of others, resulting in a phenomenon called multi-drug resistance. […] The present inventors used this cell line to determine whether ELP delivered DOX can overcome MDR1-mediated resistance to doxorubicin. MES-SA/Dx5 cells were incubated with Tat-ELP-GFLG-DOX (SEQ ID NO: 3) continuously for 72 h.
# MES-SA cells [2] = test: Confocal fluorescence microscopy of intracellular localization; conditions: 10 μM, after 1 h exposure; listed as free drug
# Procedure: 1.7. Laser Scanning Confocal Fluorescence Microscopy. MES-SA cells were plated on 22 mm^2 cover slips at approximately 50% confluence and treated as described above with Tat-ELP-GFLG-Dox (SEQ ID NO: 3). Cells were rinsed with PBS at the indicated times, fixed with paraformaldehyde (PFA, 2% v/v) and visualized using a TCS SP2 laser scanning confocal microscope with a 100× oil immersion objective (Leica, Wetzlar, Germany). PMT voltages were lowered for imaging of cells treated at 42° C. during image acquisition to maximize image resolution and intensity.
# 3.4. Cellular Distribution. To confirm that Tat-ELP-GFLG-Dox (SEQ ID NO: 3) was internalized and not merely attached to the cell exterior, the cellular distribution of the ELP-delivered drug was examined by confocal fluorescence microscopy. MES-SA cells were treated for 1 h at 37° C. and 42° C. with 10 μM Tat-ELP1-GFLG-Dox (SEQ ID NO: 3). The cells were rinsed and analyzed immediately after treatment and 24 h later using the intrinsic Dox fluorescence. […] Untreated cells had no signal under the imaging settings used, ruling out any contribution to the images from autofluorescence (FIG. 7B, right panel).
# MES-SA cells [3] = test: Caspase activation, FLICA polycaspase assay with flow cytometry; conditions: 10 μM, 1 h
# Procedure: MES-SA cells were treated for 1 h at 37 or 42° C. with Tat-ELP-GFLG-DOX (SEQ ID NO: 3), the control construct lacking the Tat sequence, with free DOX. Cells were harvested after the 1 h exposure, and caspase activity was detected using a fluorescent caspase inhibitor (Immunochemistry Technologies, Bloomington, Minn.) and flow cytometry.
# Caspase activation was measured using a carboxyfluorescein FLICA polycaspase assay (Immunochemistry Technologies, Bloomington, Minn.). Cells were treated as described above with the indicated protein, collected by trypsinization, and stained for 2 h at 37° C. with the carboxyfluorescein FLICA reagent as described by the manufacturer. Cells were rinsed twice and analyzed for caspase activation by flow cytometry using a Cytomics FC 500 flow cytometer (n=5,000 cells). Forward versus side scatter gating was used to eliminate cell debris from the analysis, and a histogram of fluorescein fluorescence (channel FL1) was bimodal with peaks for caspase positive and caspase negative cells. The percentage of caspase positive cells was determined from the histograms and expressed as an average of 3 experiments.
# MES-SA cells were treated as described above, cells were harvested after the 1 h exposure, and caspase activity was detected using a fluorescent caspase inhibitor and flow cytometric analysis. […] Cell numbers under each peak were quantified and averaged to determine the percentage of the cell population in which caspases were activated under each treatment condition. […] In fact, the percent of caspase positive cells was enhanced almost 4 fold when cells were treated with Tat-ELP1-GFLG-Dox (SEQ ID NO: 3) at 42° C. versus 37° C. (p<0.05).
# [4] = tested on: MES-SA uterine sarcoma cells; conditions: for IC50: cells counted after 72 h, ± SEM
# Procedure: MES-SA cells were treated for 1 h at 37 or 42° C. with 5 μM Tat-ELP-GFLG-DOX (SEQ ID NO: 3); ELP-GFLG-DOX (SEQ ID NO: 3), which lacks the Tat cell penetrating peptide; or Tat-ELP-GFLG (SEQ ID NO: 3), which is not labeled with DOX. After the 1 h treatment, cells were rinsed and fresh media was replaced for 72 h. Cells remaining after 72 h were collected by trypsinization and counted using a Coulter counter. […] Similarly, the control polypeptide which lacks the Tat sequence was not cytotoxic, likely because it cannot efficiently enter the cells.
# 1.8 Cytotoxicity Assay. Cells were plated and treated for 1 h at 37° C. and 42° C. as described above with Tat-ELP1-GFLG-Dox (SEQ ID NO: 3), Tat-ELP2-GFLG-Dox (SEQ ID NO: 3), or control polypeptides lacking the Tat sequence or unlabeled with Dox. Cells were rinsed and harvested 72 h after treatment by trypsinization, collected by centrifugation, and resuspended in isotonic buffer. Cell number was determined using a Coulter counter and expressed as a percentage of untreated cells.
# 1.10. Data Fitting and Statistical Analysis. The concentration dependence of the Tt was fit with a logarithmic equation using Microsoft Excel. Dose-response curves were fit using exponential or sigmoid equations as applicable using Microcal Origin in order to determine the 50% inhibitory concentration (IC50). […] The significance of the thermal targeting index was assessed by comparing the normothermia group with the hyperthermia group using a paired Student's t-test in Microsoft Excel. p values of less than 0.05 were considered statistically significant. Polypeptide uptake and caspase activation were analyzed for statistical differences using one-way ANOVA analyses with post-hoc Scheffe's tests for pair-wise comparisons of treatment groups. The statistical significance level was p<0.05.
# 3.5. Cytotoxicity of ELP-delivered Dox. The growth-inhibitory activity of Tat-ELP-GFLG-Dox (SEQ ID NO: 3) was evaluated in the MES-SA uterine sarcoma cell line. MES-SA cells were treated for 1 h at 37° C. or 42° C. with various concentrations of Tat-ELP-GFLG-Dox (SEQ ID NO: 3); ELP-GFLG-Dox (SEQ ID NO: 3), which lacks the Tat cell penetrating peptide, the Tat-ELP-GFLG (SEQ ID NO: 3) polypeptide without Dox; or free Dox. After the 1 h treatment, the cells were rinsed and fresh media was replaced for 72 h. Cells remaining after 72 h were rinsed, collected by trypsinization, and counted using a Coulter counter. […] The toxicity of the unlabeled Tat-ELP-GFLG (SEQ ID NO: 3) protein was negligible when treated below the Tt.
# MES-SA/Dx5 cells [5] = test: Drug efflux by flow cytometry; conditions: loaded 5 h with 10 μM
# Procedure: For further evidence that Tat-ELP-GFLG-DOX (SEQ ID NO: 3) can bypass the drug efflux pump, flow cytometry was used to analyze drug efflux from cells treated with free DOX or with Tat-ELP-GFLG-DOX (SEQ ID NO: 3). Cells were loaded for 5 h with either 10 μM DOX or Tat-ELP-GFLG-DOX (SEQ ID NO: 3), then the drug was removed and fresh media was replaced. Cells were collected and analyzed for DOX content using flow cytometry. […] The cells with low DOX fluorescence have pumped the drug out. As time passes after removal of the drug, the DOX positive peak gets lower in intensity and becomes a smaller percentage of the population. This illustrates the removal of DOX from theses cells with time after washing the drug out of the media. […] This means that all cells have the same amount of drug in them. This single peak is still evident at all time points after removal of the drug. This means that these cells are unable to pump the ELP delivered DOX out.
# MES-SA cells [6] = test: DIC microscopy of apoptotic cell morphology; conditions: 10 μM, 1 h, temperature not distinguished
# Procedure: 1.9. Apoptosis Assays. For differential interference contrast (DIC) microscopy, MES-SA cells were plated onto 22 mm^2 coverslips at 50% confluence. Cells were treated as described above with the indicated protein, rinsed with PBS, and mounted onto glass slides. The unfixed cells were imaged immediately using a Zeiss Axiovert 200 DIC microscope with a 40× oil immersion objective and a Coolsnap HQ camera.
# 2.6. Induction of Apoptosis. […] This effect was documented by treating MES-SA cells adhered to glass cover slips with each construct and imaging them by DIC microscopy. Cells were treated for 1 h as described above, then immediately mounted on slides and imaged without fixation. […] Untreated cells were spread onto the glass, and morphological features such as nuclei and endocytic vesicles were readily visible. This morphology was not altered by simply exposing the cells to hyperthermia. […] However, such effects were minor and limited to a fraction of the cells. […] All cells examined were rounded with no discernable nucleus and fragmented chromosomes.
structure (smiles),measurement,setting,value
"COc1cccc2c1C(=O)c1c(O)c3c(c(O)c1C2=O)C[C@@](O)(C(=O)CO)C[C@@H]3O[C@H]1C[C@H](N)[C@H](O)[C@H](C)O1 [Dox, doxorubicin]",Resistance of MES-SA/Dx5 relative to MES-SA cells,MES-SA/Dx5 cells [1],100 times
same,Resistance of MES-SA/Dx5 relative to MES-SA cells,MES-SA/Dx5 cells [1]; continuous 72 h exposure,about 100 fold
same,Intracellular localization of Dox,MES-SA cells [2],exclusively in the cell nucleus; also recorded: localizes entirely in the nucleus
same,Enhancement of percent caspase positive cells at 42° C. versus 37° C.,MES-SA cells [3],not affected by hyperthermia
same,Caspase activation / apoptosis induction,MES-SA cells [3]; temperature not distinguished,induced apoptosis
same,Cytotoxicity in words,[4],more cytotoxic than the polymer-delivered drug
same,IC50 relative to Tat-ELP-GFLG delivered Dox (times lower),[4],about 150 times
same,IC50,"[4]; 1 h treatment at 37° C., read-out: IC50 (37° C.)",130 ± 10 nM
same,IC50,"[4]; 1 h treatment at 42° C., read-out: IC50 (42° C.)",58 ± 20 nM
same,Thermal Targeting Index (IC50 37°/IC50 42°),[4]; IC50 at 37° C. divided by IC50 at 42° C.,2.3 †
same,Drug efflux: Dox fluorescence histogram after removal of the drug,MES-SA/Dx5 cells [5],two populations
same,Cell morphology (hallmarks of apoptosis),MES-SA cells [6],noticeable rounding and membrane blebbing
